Several values for one entry are separate records, joined by “and”; a condition that tells them apart may be missing. Identical values can stand only once. Records with an inconclusive call do not appear.
System: MX-1 breast xenograft, nude mice, tumor weight T/C
Assay: NCI In Vivo Anticancer Drug Screen. Data for tumor model Human Mammary Carcinoma MX-1 Xenograft (intrarenal inoculation) in NU/NU Swiss (nude) mice
Conditions: endpoint: mean tumor weight change, higher = larger tumour
In short: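 Read-out: treated (T) over vehicle control (C) ratio of survival or tumor size. Dosing in animals carrying the transplanted tumor.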

[1] = dose: 2.0 mg/kg/injection, schedule: Q01DX010 (sc), vehicle: saline
[2] = dose: 300.0 mg/kg/injection, schedule: Q04DX003 (sc), vehicle: Klucel (hydroxypropylcellulose) (HPC)
[3] = dose: 600.0 mg/kg/injection, schedule: Q04DX003 (sc), vehicle: Klucel (hydroxypropylcellulose) (HPC)
[4] = dose: 1200.0 mg/kg/injection, schedule: Q04DX003 (sc), vehicle: Klucel (hydroxypropylcellulose) (HPC)
[5] = dose: 2400.0 mg/kg/injection, schedule: Q04DX003 (sc), vehicle: Klucel (hydroxypropylcellulose) (HPC)
[6] = dose: 100.0 mg/kg/injection, schedule: Q04DX003 (sc), vehicle: saline
[7] = dose: 200.0 mg/kg/injection, schedule: Q04DX003 (sc), vehicle: saline
[8] = dose: 300.0 mg/kg/injection, schedule: Q04DX003 (sc), vehicle: suspension in saline
[9] = dose: 400.0 mg/kg/injection, schedule: Q04DX003 (sc), vehicle: saline
[10] = dose: 9.38 mg/kg/injection, schedule: Q04DX003 (sc), vehicle: Klucel (hydroxypropylcellulose) (HPC)
[11] = dose: 18.75 mg/kg/injection, schedule: Q04DX003 (sc), vehicle: Klucel (hydroxypropylcellulose) (HPC)

CC(=O)C(O)N1C(=O)C=CC1=O (stereo not drawn)
T/C (dose: 2.5 mg/kg/injection, schedule: Q01DX010 (sc), vehicle: saline): 157 % of control
T/C (dose: 5.0 mg/kg/injection, schedule: Q01DX010 (sc), vehicle: saline): 117 % of control
T/C (dose: 10.0 mg/kg/injection, schedule: Q01DX010 (sc), vehicle: saline): 159 % of control

COc1cccc2c1C(=O)c1c(O)c3c(c(O)c1C2=O)C[C@@](O)(C(=O)CO)C[C@@H]3OC1CC(N)C(O)C(C)O1 (stereo partly drawn)
T/C (dose: 0.25 mg/kg/injection, schedule: Q01DX010 (ip), vehicle: water): 46 % of control
T/C (dose: 0.5 mg/kg/injection, schedule: Q01DX010 (ip), vehicle: water): 37 % of control
T/C (dose: 0.75 mg/kg/injection, schedule: Q01DX010 (sc), vehicle: saline): 159 % of control
T/C (dose: 1.0 mg/kg/injection, schedule: Q01DX010 (ip), vehicle: water): 10 % of control
T/C (dose: 1.5 mg/kg/injection, schedule: Q01DX010 (sc), vehicle: saline): 84 % of control
T/C (dose: 3.0 mg/kg/injection, schedule: Q01DX010 (sc), vehicle: saline): 94 % of control
T/C (dose: 4.0 mg/kg/injection, schedule: Q04DX003 (sc), vehicle: water): 61 % of control
T/C (dose: 6.0 mg/kg/injection, schedule: Q01DX010 (sc), vehicle: saline): 52 % of control
T/C (dose: 6.0 mg/kg/injection, schedule: Q01DX010 (sc), vehicle: water): 69 % of control
T/C (dose: 8.0 mg/kg/injection, schedule: Q04DX003 (sc), vehicle: water): 61 % of control

CCCCCn1c(C)cc(/C=C\c2ccc3cc(C)ccc3[n+]2C)c1C
T/C (dose: 0.38 mg/kg/injection, schedule: Q04DX003 (sc), vehicle: Klucel (hydroxypropylcellulose) (HPC)): 174 % of control
T/C (dose: 0.75 mg/kg/injection, schedule: Q04DX003 (sc), vehicle: Klucel (hydroxypropylcellulose) (HPC)): 62 % of control
T/C (dose: 1.5 mg/kg/injection, schedule: Q04DX003 (sc), vehicle: Klucel (hydroxypropylcellulose) (HPC)): 109 % of control
T/C (dose: 3.0 mg/kg/injection, schedule: Q04DX003 (sc), vehicle: Klucel (hydroxypropylcellulose) (HPC)): 74 % of control

COc1cc([C@@H]2c3cc4c(c(O)c3C[C@H]3COC(=O)[C@@H]32)OCO4)cc(OC)c1O
T/C (dose: 0.5 mg/kg/injection, schedule: Q01DX010 (sc), vehicle: saline): 121 % of control
T/C (dose: 1.0 mg/kg/injection, schedule: Q01DX010 (sc), vehicle: saline): 114 % of control
T/C [1]: 87 % of control
T/C (dose: 3.13 mg/kg/injection, schedule: Q01DX010 (sc), vehicle: saline): 104 % of control
T/C (dose: 4.0 mg/kg/injection, schedule: Q01DX010 (sc), vehicle: saline): 98 % of control
T/C (dose: 6.25 mg/kg/injection, schedule: Q01DX010 (sc), vehicle: saline): 34 % of control

C=C(NC(=O)C(=C)NC(=O)c1csc(C2=NC3c4csc(n4)C4NC(=O)c5csc(n5)C(C(C)(O)C(C)O)NC(=O)C5CSC(=N5)/C(=C/C)NC(=O)C(C(C)O)NC(=O)c5csc(n5)C3(CC2)NC(=O)C(C)NC(=O)C(=C)NC(=O)C(=C)NC(=O)C(C(C)C)NC2C=Cc3c(C(C)O)cc(nc3C2O)C(=O)OC4C)n1)C(N)=O (stereo not drawn)
T/C (dose: 187.5 mg/kg/injection, schedule: Q04DX003 (sc), vehicle: suspension in saline): 123 % of control
T/C (dose: 375.0 mg/kg/injection, schedule: Q04DX003 (sc), vehicle: suspension in saline): 98 % of control
T/C (dose: 750.0 mg/kg/injection, schedule: Q04DX003 (sc), vehicle: suspension in saline): 105 % of control
T/C (dose: 1500.0 mg/kg/injection, schedule: Q04DX003 (sc), vehicle: suspension in saline): 152 % of control

CSc1ncc2ncn(C3OC(CO)C(O)C3O)c2n1 (stereo not drawn)
T/C [2]: 56 % of control
T/C [3]: 59 % of control
T/C [4]: 37 % of control
T/C [5]: 68 % of control

CN(C)C(=O)SC1=C(c2c(Cl)cccc2Cl)C(=O)c2ccccc21
T/C [2]: 76 % of control
T/C [3]: 65 % of control
T/C [4]: 57 % of control
T/C [5]: 67 % of control

CS(=O)(=O)OCCN(CCOS(C)(=O)=O)c1ccc(C=O)cc1
T/C (dose: 25.0 mg/kg/injection, schedule: Q01DX010 (sc), vehicle: saline): -67 % of control and -51 % of control

Cc1c(N)nc(C(CC(N)=O)NCC(N)C(N)=O)nc1C(=O)NC(C(=O)NC(C)C(O)C(C)C(=O)NC(C(=O)NCCc1nc(-c2nc(C(=O)NCCCNC(C)c3ccccc3)cs2)cs1)C(C)O)C(OC1OC(CO)C(O)C(O)C1OC1OC(CO)C(O)C(OC(N)=O)C1O)c1cnc[nH]1 (stereo not drawn)
T/C [1]: 114 % of control
T/C (dose: 8.0 mg/kg/injection, schedule: Q01DX010 (sc), vehicle: saline): 92 % of control
T/C (dose: 16.0 mg/kg/injection, schedule: Q01DX010 (sc), vehicle: saline): 89 % of control

CCC(C(=O)O)C(=O)O.[NH-]CC1CCCC[N-]1.[Pt+2]
T/C [6]: 51 % of control
T/C (dose: 200.0 mg/kg/injection, schedule: Q04DX003 (sc), vehicle: saline with Tween-80): -98 % of control
T/C [7]: 20 % of control
T/C (dose: 300.0 mg/kg/injection, schedule: Q04DX003 (sc), vehicle: saline with Tween-80): -98 % of control
T/C [8]: 14 % of control and 26 % of control
T/C (dose: 400.0 mg/kg/injection, schedule: Q04DX003 (sc), vehicle: saline with Tween-80): -100 % of control
T/C [9]: 2 % of control
T/C (dose: 400.0 mg/kg/injection, schedule: Q04DX003 (sc), vehicle: suspension in saline): 28 % of control and 32 % of control
T/C (dose: 500.0 mg/kg/injection, schedule: Q04DX003 (sc), vehicle: saline with Tween-80): -100 % of control
T/C (dose: 500.0 mg/kg/injection, schedule: Q04DX003 (sc), vehicle: suspension in saline): 3 % of control and 20 % of control

Cc1c2ccc3ccccc3c2c[n+]2ccccc12
T/C [10]: 75 % of control
T/C [11]: 77 % of control

CNc1nc2c(N)ncnc2n1C1OC(CO)C(O)C1O (stereo not drawn)
T/C (dose: 12.5 mg/kg/injection, schedule: Q04DX003 (sc), vehicle: saline): 111 % of control
T/C (dose: 25.0 mg/kg/injection, schedule: Q04DX003 (sc), vehicle: saline): 92 % of control
T/C (dose: 50.0 mg/kg/injection, schedule: Q04DX003 (sc), vehicle: saline): 60 % of control

NCCCNCCSP(=O)(O)O
T/C [6]: 98 % of control
T/C [7]: 80 % of control
T/C [9]: 91 % of control

CCN1/C(=C/C=C/C=C/c2sc3ccccc3[n+]2CC)Sc2ccccc21
T/C (dose: 1.5 mg/kg/injection, schedule: Q04DX003 (sc), vehicle: suspension in saline): 56 % of control
T/C (dose: 3.0 mg/kg/injection, schedule: Q04DX003 (sc), vehicle: suspension in saline): 35 % of control
T/C (dose: 6.0 mg/kg/injection, schedule: Q04DX003 (sc), vehicle: suspension in saline): 71 % of control

CSC(SC)=C1C(=O)NC(=O)NC1=O
T/C (dose: 75.0 mg/kg/injection, schedule: Q04DX003 (sc), vehicle: suspension in saline): 69 % of control
T/C (dose: 150.0 mg/kg/injection, schedule: Q04DX003 (sc), vehicle: suspension in saline): 75 % of control
T/C [8]: 108 % of control
T/C (dose: 600.0 mg/kg/injection, schedule: Q04DX003 (sc), vehicle: suspension in saline): 42 % of control

NC(=S)N/N=C\c1ncccc1OCc1cccc(N)c1
T/C (dose: 600.0 mg/kg/injection, schedule: Q04DX003 (sc), vehicle: saline with Tween-80): 75 % of control
T/C (dose: 1200.0 mg/kg/injection, schedule: Q04DX003 (sc), vehicle: saline with Tween-80): 152 % of control

Clc1ccc(C(c2ccccc2Cl)C(Cl)Cl)cc1 (stereo not drawn)
T/C (dose: 1200.0 mg/kg/injection, schedule: Q04DX003 (sc), vehicle: saline): 85 % of control
T/C (dose: 2400.0 mg/kg/injection, schedule: Q04DX003 (sc), vehicle: saline): 98 % of control
T/C (dose: 4800.0 mg/kg/injection, schedule: Q04DX003 (sc), vehicle: saline): 83 % of control
T/C (dose: 9600.0 mg/kg/injection, schedule: Q04DX003 (sc), vehicle: saline): 39 % of control

C1CCC2OCCOCCOC3CCCCC3OCCOCCOC2C1 (stereo not drawn)
T/C [10]: 62 % of control
T/C [11]: 87 % of control
T/C (dose: 37.5 mg/kg/injection, schedule: Q04DX003 (sc), vehicle: Klucel (hydroxypropylcellulose) (HPC)): 64 % of control
T/C (dose: 75.0 mg/kg/injection, schedule: Q04DX003 (sc), vehicle: Klucel (hydroxypropylcellulose) (HPC)): 46 % of control

CCCCCCCCCCCCCCC/C([O-])=N/[N+](C)(C)CC(C)O (stereo not drawn)
T/C (dose: 200.0 mg/kg/injection, schedule: Q04DX003 (sc), vehicle: Klucel (hydroxypropylcellulose) (HPC)): 95 % of control
T/C (dose: 800.0 mg/kg/injection, schedule: Q04DX003 (sc), vehicle: Klucel (hydroxypropylcellulose) (HPC)): 100 % of control
T/C (dose: 1600.0 mg/kg/injection, schedule: Q04DX003 (sc), vehicle: Klucel (hydroxypropylcellulose) (HPC)): 91 % of control
T/C [5]: 63 % of control
